This note sets out measurements from US20240261296A1, “THERAPEUTIC MODALITIES FOR INHIBITING PANCREATIC BETA CELL IMPAIRMENT AND TREATING DIABETES” (Hadasit Medical Research Serices & Development Ltd., priority 2021, published 2024).

This assay relates to human islets β-cells. The assay can be described thus: glucose-stimulated insulin secretion and insulin content in palmitate-treated human islets. Particulars: palmitic acid 0.3 mM, 48 hr, donors 1 and 2. Format: cell-based. On the procedure:
Determination of glucose-stimulated insulin secretion (GSIS) and content: To determine acute insulin release in response to glucose stimulation, islets were washed with Krebs-Ringer bicarbonate buffer pH 7.4, containing 10 mM HEPES and 0.5% bovine serum albumin (KRBH), and pre-incubated for 2 hrs in the same buffer containing 3.3 mM glucose. The buffer was then discarded and replaced with fresh KRBH containing 3.3 mM glucose, and the islets incubated for 1 hour for basal insulin secretion, followed by additional 1 hour incubation in KRBH containing 16.7 mM glucose. The supernatants were collected, centrifuged at 900 rpm and insulin was determined by Rat or Human insulin radioimmunoassay (RIA) kits (Linco Research, St. Charles, MO) according to the Manufacturer's instructions. […] The acidic ethanol eluates were collected and the amount of insulin determined by ELISA.
ELISA Assay: Insulin was extracted from the intracellular storage granules in human islets cells using a lysis buffer (Ethanol-HCl). The extract was analysed by a specific ELISA (Mercodia) which is a solid phase two-site enzyme immunoassay based on the sandwich technique, in which two monoclonal antibodies are directed against separate antigenic determinants on the insulin molecule. […]

Each structure is given as a SMILES string.

As for `CC[C@@H]1CC[C@H](C)N1C(=O)c1cccc(NS(=O)(=O)c2ccc(C)c(F)c2)c1` [Compound C13, N-(3-((2R,5S)-2-ethyl-5-methylpyrrolidine-1-carbonyl)phenyl)-3-fluoro-4-methylbenzenesulfonamide], the restoring insulin content result is reported as “more potent than L-798106”. Besides, the “restoring glucose-stimulated insulin secretion” value (16.7 mM glucose) is “more potent than L-798106”.
